# Reference: doi:10.1101/2024.08.19.608619, “Discovery of potent SARS-CoV-2 nsp3 macrodomain inhibitors uncovers lack of translation to cellular antiviral response” (bioRxiv, 2024)
# Test system: not listed separately
# Experiment: in vitro
# Conditions: human, hela-ace2 cells, 50.0
row,Structure (SMILES),CC50 at 24 h [µM]
1,CNCc1cc(-c2cc3c(N[C@@H](c4ccc5c(c4)S(=O)(=O)CCC5)C(C)C)ncnc3[nH]2)co1 [ASAP-0011176],> 20

# Test system: not listed separately
# Experiment: Hepatic microsomal stability, MLM
# Type: in vitro ADME
# Conditions: In vitro mouse liver microsomal stability
Structure (SMILES),clint [µL/min/mg],perc_remaining [%],t_half [min]
CNCc1cc(-c2cc3c(N[C@@H](c4ccc5c(c4)S(=O)(=O)CCC5)C(C)C)ncnc3[nH]2)co1 [ASAP-0011176],54.0,35.0,30.9

# Same assay, conditions: In vitro mouse liver microsomal stability, no cofactor
row,Structure (SMILES),perc_remaining_no_cofactor [%]
1,CNCc1cc(-c2cc3c(N[C@@H](c4ccc5c(c4)S(=O)(=O)CCC5)C(C)C)ncnc3[nH]2)co1 [ASAP-0011176],101.0

# Target: T1, 5-HT3 (h) (Homo sapiens, UniProt P46098)
# T1 construct: purchased Eurofins Cerep (SafetyScreen44), recognised from the panel format
# T1 sequence (P46098 24-478): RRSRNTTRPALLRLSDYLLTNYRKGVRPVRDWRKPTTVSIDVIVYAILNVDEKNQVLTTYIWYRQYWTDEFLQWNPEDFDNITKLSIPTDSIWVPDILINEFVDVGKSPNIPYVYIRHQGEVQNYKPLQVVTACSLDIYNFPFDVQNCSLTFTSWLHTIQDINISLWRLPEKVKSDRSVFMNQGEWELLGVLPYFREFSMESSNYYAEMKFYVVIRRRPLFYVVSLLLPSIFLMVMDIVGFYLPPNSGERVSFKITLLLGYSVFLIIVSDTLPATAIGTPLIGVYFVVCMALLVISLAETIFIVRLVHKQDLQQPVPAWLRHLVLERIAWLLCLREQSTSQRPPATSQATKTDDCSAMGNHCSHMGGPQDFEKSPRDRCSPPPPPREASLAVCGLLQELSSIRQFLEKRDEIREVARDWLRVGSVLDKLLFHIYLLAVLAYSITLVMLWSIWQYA
# Experiment: In vitro CEREP profiling, 5-HT3 (h) (antagonist radioligand)
# Type: binding
# Conditions: test compound concentration 10 uM
# Text: (§1) Supplement media-1.zip/Safety_Panel_Profile.csv, table | column: perc_inhibition
row,Structure (SMILES),perc_inhibition (% inhibition of the binding of a ligand specific for each target) [%]
1,CNCc1cc(-c2cc3c(N[C@@H](c4ccc5c(c4)S(=O)(=O)CCC5)C(C)C)ncnc3[nH]2)co1 [ASAP-0011176],0

# Target: T2, N neuronal alpha4beta2 (h) (Homo sapiens, UniProt P17787+P43681)
# T2 construct: purchased Eurofins Cerep (SafetyScreen44), recognised from the panel format
# Experiment: In vitro CEREP profiling, N neuronal alpha4beta2 (h) (agonist radioligand)
# Type: binding
# Conditions: test compound concentration 10 uM
# Text: as §1
# T2 sequence (P43681 29-627 limits assumed): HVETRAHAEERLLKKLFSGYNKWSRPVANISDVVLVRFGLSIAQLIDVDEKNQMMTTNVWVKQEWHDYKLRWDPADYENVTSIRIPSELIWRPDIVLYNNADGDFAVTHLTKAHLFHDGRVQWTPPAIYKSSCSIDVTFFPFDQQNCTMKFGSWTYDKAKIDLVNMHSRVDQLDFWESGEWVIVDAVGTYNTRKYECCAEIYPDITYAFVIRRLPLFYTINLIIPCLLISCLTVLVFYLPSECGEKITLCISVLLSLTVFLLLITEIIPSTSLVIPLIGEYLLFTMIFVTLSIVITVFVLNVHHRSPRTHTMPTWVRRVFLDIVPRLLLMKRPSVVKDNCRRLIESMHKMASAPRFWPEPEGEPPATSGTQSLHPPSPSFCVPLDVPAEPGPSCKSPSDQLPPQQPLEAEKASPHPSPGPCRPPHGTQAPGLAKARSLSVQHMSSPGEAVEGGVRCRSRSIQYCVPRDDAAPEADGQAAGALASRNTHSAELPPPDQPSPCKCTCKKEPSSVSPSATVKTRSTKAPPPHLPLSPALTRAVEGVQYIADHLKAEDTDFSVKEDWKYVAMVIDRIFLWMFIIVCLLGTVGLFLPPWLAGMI
# T2 sequence (P17787 26-502): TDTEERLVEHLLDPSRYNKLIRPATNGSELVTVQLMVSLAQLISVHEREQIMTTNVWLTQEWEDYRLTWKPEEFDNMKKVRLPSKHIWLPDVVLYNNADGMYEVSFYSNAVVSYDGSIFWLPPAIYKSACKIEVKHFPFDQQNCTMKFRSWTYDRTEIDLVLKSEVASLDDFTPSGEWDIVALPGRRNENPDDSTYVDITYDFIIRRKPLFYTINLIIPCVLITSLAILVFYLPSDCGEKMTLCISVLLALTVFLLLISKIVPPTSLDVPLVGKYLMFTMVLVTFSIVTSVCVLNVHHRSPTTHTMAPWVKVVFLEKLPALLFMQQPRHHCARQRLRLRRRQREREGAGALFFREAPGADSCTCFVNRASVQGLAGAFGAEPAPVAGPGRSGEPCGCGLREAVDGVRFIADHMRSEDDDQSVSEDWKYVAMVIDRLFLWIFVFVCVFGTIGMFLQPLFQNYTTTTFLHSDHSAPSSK
row,Structure (SMILES),perc_inhibition (% inhibition of the binding of a ligand specific for each target) [%]
1,CNCc1cc(-c2cc3c(N[C@@H](c4ccc5c(c4)S(=O)(=O)CCC5)C(C)C)ncnc3[nH]2)co1 [ASAP-0011176],0

# Test system: not listed separately
# Experiment: In vitro rat SD liver microsomal stability
# Type: in vitro ADME
# Conditions: not given
# Text: Supplement media-1.zip/Hepatic_Microsomal_Stability.csv, table | column: clint; t_half
Structure (SMILES),clint [µL/min/mg],t_half [min]
CNCc1cc(-c2cc3c(N[C@@H](c4ccc5c(c4)S(=O)(=O)CCC5)C(C)C)ncnc3[nH]2)co1 [ASAP-0011176],21.4,32.4

# Target: T3, norepinephrine transporter (h) (Homo sapiens, UniProt P23975)
# T3 construct: purchased Eurofins Cerep (SafetyScreen44), recognised from the panel format
# Experiment: In vitro CEREP profiling, norepinephrine transporter (h) (antagonist radioligand)
# Type: binding
# Conditions: test compound concentration 10 uM
# Text: as §1
# T3 sequence (P23975 whole entry): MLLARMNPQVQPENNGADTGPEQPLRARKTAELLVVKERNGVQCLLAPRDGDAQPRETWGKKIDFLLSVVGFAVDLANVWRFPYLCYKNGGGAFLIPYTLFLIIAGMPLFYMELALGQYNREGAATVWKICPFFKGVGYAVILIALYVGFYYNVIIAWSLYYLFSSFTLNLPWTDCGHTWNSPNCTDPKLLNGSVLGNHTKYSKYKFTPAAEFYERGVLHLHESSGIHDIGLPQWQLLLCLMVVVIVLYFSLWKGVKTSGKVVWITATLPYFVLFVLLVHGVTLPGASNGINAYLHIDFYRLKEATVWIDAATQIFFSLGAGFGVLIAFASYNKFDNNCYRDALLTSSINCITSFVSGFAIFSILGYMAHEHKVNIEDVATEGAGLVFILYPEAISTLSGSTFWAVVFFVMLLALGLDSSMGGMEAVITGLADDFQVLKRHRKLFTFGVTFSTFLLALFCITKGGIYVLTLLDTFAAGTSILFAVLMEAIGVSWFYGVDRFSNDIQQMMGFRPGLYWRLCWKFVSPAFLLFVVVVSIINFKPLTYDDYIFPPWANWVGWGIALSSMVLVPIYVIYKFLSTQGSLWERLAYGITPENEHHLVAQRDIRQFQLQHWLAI
row,Structure (SMILES),perc_inhibition (% inhibition of the binding of a ligand specific for each target) [%]
1,CNCc1cc(-c2cc3c(N[C@@H](c4ccc5c(c4)S(=O)(=O)CCC5)C(C)C)ncnc3[nH]2)co1 [ASAP-0011176],39

# Test system: not listed separately
# Experiment: In vitro human hepatocyte stability
# Type: in vitro ADME
# Conditions: not given
# Text: Supplement media-1.zip/Hepatocyte_Stability.csv, table | column: clint; t_half
Structure (SMILES),clint [uL/min/1E6 cells],t_half [min]
CNCc1cc(-c2cc3c(N[C@@H](c4ccc5c(c4)S(=O)(=O)CCC5)C(C)C)ncnc3[nH]2)co1 [ASAP-0011176],14.2,48.9

# Target: T4, delta (DOP) (h) (Homo sapiens, UniProt P41143)
# T4 construct: purchased Eurofins Cerep (SafetyScreen44), recognised from the panel format
# Experiment: In vitro CEREP profiling, delta (DOP) (h) (agonist radioligand)
# Type: binding
# Conditions: test compound concentration 10 uM
# Text: as §1
# T4 sequence (P41143 whole entry): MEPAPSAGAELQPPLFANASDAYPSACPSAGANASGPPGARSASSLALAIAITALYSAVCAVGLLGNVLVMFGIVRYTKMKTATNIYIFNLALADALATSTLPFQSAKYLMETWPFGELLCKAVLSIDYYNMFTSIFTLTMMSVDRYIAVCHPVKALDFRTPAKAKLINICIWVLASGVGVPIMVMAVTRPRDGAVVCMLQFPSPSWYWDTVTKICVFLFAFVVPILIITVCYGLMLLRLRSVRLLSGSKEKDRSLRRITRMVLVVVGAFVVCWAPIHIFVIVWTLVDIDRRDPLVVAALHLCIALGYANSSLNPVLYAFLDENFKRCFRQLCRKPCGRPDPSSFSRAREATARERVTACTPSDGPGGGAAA
row,Structure (SMILES),perc_inhibition (% inhibition of the binding of a ligand specific for each target) [%]
1,CNCc1cc(-c2cc3c(N[C@@H](c4ccc5c(c4)S(=O)(=O)CCC5)C(C)C)ncnc3[nH]2)co1 [ASAP-0011176],53

# Target: T5, CB2 (h) (Homo sapiens, UniProt P34972)
# T5 construct: purchased Eurofins Cerep (SafetyScreen44), recognised from the panel format
# Experiment: In vitro CEREP profiling, CB2 (h) (agonist radioligand)
# Type: binding
# Conditions: test compound 10 uM
# Text: as §1
# T5 sequence (P34972 whole entry): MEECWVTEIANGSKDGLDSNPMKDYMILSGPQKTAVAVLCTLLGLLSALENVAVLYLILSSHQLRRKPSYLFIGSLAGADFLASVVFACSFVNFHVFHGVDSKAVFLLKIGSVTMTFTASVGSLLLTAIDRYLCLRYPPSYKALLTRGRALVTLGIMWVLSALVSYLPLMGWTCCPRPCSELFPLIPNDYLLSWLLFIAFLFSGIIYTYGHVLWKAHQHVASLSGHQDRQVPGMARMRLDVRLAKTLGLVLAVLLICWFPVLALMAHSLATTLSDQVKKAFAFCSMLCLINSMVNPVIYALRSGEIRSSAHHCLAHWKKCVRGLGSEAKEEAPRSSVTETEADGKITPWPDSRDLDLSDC
row,Structure (SMILES),perc_inhibition (% inhibition of the binding of a ligand specific for each target) [%]
1,CNCc1cc(-c2cc3c(N[C@@H](c4ccc5c(c4)S(=O)(=O)CCC5)C(C)C)ncnc3[nH]2)co1 [ASAP-0011176],-8

# Test system: not listed separately
# Experiment: Protein binding
# Type: in vitro ADME
# Conditions: In vitro dog plasma protein binding
# Text: Supplement media-1.zip/Protein_Binding.csv, table | column: fu; perc_bound; perc_free; perc_recovered
Structure (SMILES),fu,perc_bound [%],perc_free [%],perc_recovered [%]
CNCc1cc(-c2cc3c(N[C@@H](c4ccc5c(c4)S(=O)(=O)CCC5)C(C)C)ncnc3[nH]2)co1 [ASAP-0011176],0.088,91.2,8.77,70.87

# Same assay, conditions: In vitro fetal calf serum protein binding
Structure (SMILES),fu,perc_bound [%],perc_free [%],perc_recovered [%]
CNCc1cc(-c2cc3c(N[C@@H](c4ccc5c(c4)S(=O)(=O)CCC5)C(C)C)ncnc3[nH]2)co1 [ASAP-0011176],0.08,92.0,8.01,78.6

# Same assay, conditions: In vitro human plasma protein binding
Structure (SMILES),fu,perc_bound [%],perc_free [%],perc_recovered [%]
CNCc1cc(-c2cc3c(N[C@@H](c4ccc5c(c4)S(=O)(=O)CCC5)C(C)C)ncnc3[nH]2)co1 [ASAP-0011176],0.08,92.0,8.01,78.61

# Same assay, conditions: In vitro mouse plasma protein binding
Structure (SMILES),fu,perc_bound [%],perc_free [%],perc_recovered [%]
CNCc1cc(-c2cc3c(N[C@@H](c4ccc5c(c4)S(=O)(=O)CCC5)C(C)C)ncnc3[nH]2)co1 [ASAP-0011176],0.031,96.9,3.14,94.01

# Same assay, conditions: In vitro rat plasma protein binding
Structure (SMILES),fu,perc_bound [%],perc_free [%],perc_recovered [%]
CNCc1cc(-c2cc3c(N[C@@H](c4ccc5c(c4)S(=O)(=O)CCC5)C(C)C)ncnc3[nH]2)co1 [ASAP-0011176],0.072,92.8,7.24,95.34

# Target: T6, CCK1 (CCKA) (h) (Homo sapiens, UniProt P32238)
# T6 construct: purchased Eurofins Cerep (SafetyScreen44), recognised from the panel format
# T6 sequence (P32238 1-428): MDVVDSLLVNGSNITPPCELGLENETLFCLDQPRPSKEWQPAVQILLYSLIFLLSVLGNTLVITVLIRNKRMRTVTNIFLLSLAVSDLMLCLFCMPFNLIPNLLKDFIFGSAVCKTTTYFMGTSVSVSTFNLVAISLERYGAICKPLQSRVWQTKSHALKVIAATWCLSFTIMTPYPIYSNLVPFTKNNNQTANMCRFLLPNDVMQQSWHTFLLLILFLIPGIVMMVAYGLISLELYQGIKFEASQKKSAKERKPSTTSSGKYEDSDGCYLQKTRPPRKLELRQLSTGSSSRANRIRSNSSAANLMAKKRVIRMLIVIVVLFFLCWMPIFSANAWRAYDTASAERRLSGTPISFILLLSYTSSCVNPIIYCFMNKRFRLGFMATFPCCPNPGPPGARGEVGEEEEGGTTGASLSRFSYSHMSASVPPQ
# Experiment: In vitro CEREP profiling, CCK1 (CCKA) (h) (agonist radioligand)
# Type: binding
# Conditions: test compound 10 uM
# Text: as §1
row,Structure (SMILES),perc_inhibition (% inhibition of the binding of a ligand specific for each target) [%]
1,CNCc1cc(-c2cc3c(N[C@@H](c4ccc5c(c4)S(=O)(=O)CCC5)C(C)C)ncnc3[nH]2)co1 [ASAP-0011176],-24

# Test system: BZD (central)
# Experiment: In vitro CEREP profiling, BZD (central) (agonist radioligand)
# Type: binding
# Conditions: test compound 10 uM
# Text: as §1
row,Structure (SMILES),perc_inhibition (% inhibition of the binding of a ligand specific for each target) [%]
1,CNCc1cc(-c2cc3c(N[C@@H](c4ccc5c(c4)S(=O)(=O)CCC5)C(C)C)ncnc3[nH]2)co1 [ASAP-0011176],28

# Target: T7, MAO-A (Rattus norvegicus, UniProt P21396)
# T7 construct: purchased Eurofins Cerep (SafetyScreen44), recognised from the panel format
# T7 sequence (P21396 1-526): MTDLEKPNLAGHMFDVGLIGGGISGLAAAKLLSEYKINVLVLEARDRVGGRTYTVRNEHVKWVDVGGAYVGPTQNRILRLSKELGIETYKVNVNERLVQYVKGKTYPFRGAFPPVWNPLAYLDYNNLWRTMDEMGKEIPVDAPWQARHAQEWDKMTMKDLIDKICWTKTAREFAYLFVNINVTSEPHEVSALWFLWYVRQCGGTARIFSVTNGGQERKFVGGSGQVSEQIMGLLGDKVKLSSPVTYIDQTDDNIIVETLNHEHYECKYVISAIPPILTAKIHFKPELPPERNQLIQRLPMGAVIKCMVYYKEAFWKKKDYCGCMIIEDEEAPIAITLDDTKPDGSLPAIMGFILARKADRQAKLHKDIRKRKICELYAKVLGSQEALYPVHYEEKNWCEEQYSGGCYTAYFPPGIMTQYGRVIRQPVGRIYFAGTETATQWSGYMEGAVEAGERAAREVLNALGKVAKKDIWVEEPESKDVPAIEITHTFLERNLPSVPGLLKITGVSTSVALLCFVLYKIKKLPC
# Experiment: In vitro CEREP profiling, MAO-A (antagonist radioligand)
# Type: binding
# Conditions: test compound concentration 10 uM
# Text: as §1
row,Structure (SMILES),perc_inhibition (% inhibition of the binding of a ligand specific for each target) [%]
1,CNCc1cc(-c2cc3c(N[C@@H](c4ccc5c(c4)S(=O)(=O)CCC5)C(C)C)ncnc3[nH]2)co1 [ASAP-0011176],11

# Target: T8, M3 (h) (Homo sapiens, UniProt P20309)
# T8 construct: purchased Eurofins Cerep (SafetyScreen44), recognised from the panel format
# Experiment: In vitro CEREP profiling, M3 (h) (antagonist radioligand)
# Type: binding
# Conditions: test compound concentration 10 uM
# Text: as §1
# T8 sequence (P20309 whole entry): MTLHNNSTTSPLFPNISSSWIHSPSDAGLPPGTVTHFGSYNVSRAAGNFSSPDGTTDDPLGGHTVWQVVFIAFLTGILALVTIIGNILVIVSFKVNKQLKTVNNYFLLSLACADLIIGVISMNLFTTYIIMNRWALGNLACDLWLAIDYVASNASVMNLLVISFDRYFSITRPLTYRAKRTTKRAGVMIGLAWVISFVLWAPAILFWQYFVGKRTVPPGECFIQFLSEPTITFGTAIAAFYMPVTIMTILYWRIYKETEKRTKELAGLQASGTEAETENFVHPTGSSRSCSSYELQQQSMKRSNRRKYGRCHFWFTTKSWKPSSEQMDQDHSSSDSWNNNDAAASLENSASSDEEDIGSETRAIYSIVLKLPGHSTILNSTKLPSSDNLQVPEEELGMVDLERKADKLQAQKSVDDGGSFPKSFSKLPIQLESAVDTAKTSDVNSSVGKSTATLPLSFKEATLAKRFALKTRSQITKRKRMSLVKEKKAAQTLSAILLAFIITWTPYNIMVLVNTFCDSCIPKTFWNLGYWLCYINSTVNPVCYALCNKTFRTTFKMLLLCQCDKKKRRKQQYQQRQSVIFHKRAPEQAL
row,Structure (SMILES),perc_inhibition (% inhibition of the binding of a ligand specific for each target) [%]
1,CNCc1cc(-c2cc3c(N[C@@H](c4ccc5c(c4)S(=O)(=O)CCC5)C(C)C)ncnc3[nH]2)co1 [ASAP-0011176],5

# Target: T9, H2 (h) (Homo sapiens, UniProt P25021)
# T9 construct: purchased Eurofins Cerep (SafetyScreen44), recognised from the panel format
# Experiment: In vitro CEREP profiling, H2 (h) (antagonist radioligand)
# Type: binding
# Conditions: test compound concentration 10 uM
# Text: as §1
# T9 sequence (P25021 whole entry): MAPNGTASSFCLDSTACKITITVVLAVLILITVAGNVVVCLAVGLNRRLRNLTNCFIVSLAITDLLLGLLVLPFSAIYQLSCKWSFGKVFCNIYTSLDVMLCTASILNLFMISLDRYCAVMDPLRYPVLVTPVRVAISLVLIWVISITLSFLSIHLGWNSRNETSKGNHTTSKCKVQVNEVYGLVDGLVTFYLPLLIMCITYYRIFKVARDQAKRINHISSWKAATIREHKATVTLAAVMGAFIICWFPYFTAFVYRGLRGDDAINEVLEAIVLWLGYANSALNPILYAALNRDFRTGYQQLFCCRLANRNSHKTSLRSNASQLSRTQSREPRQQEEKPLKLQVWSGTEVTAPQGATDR
row,Structure (SMILES),perc_inhibition (% inhibition of the binding of a ligand specific for each target) [%]
1,CNCc1cc(-c2cc3c(N[C@@H](c4ccc5c(c4)S(=O)(=O)CCC5)C(C)C)ncnc3[nH]2)co1 [ASAP-0011176],-3
